{"source": "paper PMC11004178", "about": "“LDL receptor-related protein 5 selectively transports unesterified polyunsaturated fatty acids to intracellular compartments” (Nature Communications, 2024)", "molecular_target": "T1, mTORC1 (mTOR kinase complex) (Homo sapiens, UniProt P42345)", "T1 construct": "mTORC1 complex immunoprecipitated from HEK293T cells expressing HA-tagged Raptor; with Raptor (HA-tagged; mTORC1 complex)", "assay": "in vitro kinase assay, immunoprecipitated mTORC1, GST-4EBP1 substrate, […] EPA (single concentration)", "format": "biochemical"}
{"smiles": "CC/C=C\\C/C=C\\C/C=C\\C/C=C\\C/C=C\\CCCC(=O)O", "note": "[EPA, eicosapentaenoic acid]", "values": [{"measurement": "in vitro kinase assay, immunoprecipitated mTORC1, GST-4EBP1 substrate, 100 μM EP", "result": "The addition of EPA, but not EPA-EE, caused significant inhibition of 4EBP1 phosphorylation by immunoprecipitated mTORC1"}]}
